PubChem BioAssay (NCI)
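Briefly, cells in 96-well plates were exposed to five compound concentrations for 48 h, and endpoints were estimated by linear interpolation. GI50: concentration for 50% inhibition of growth. TGI denotes the concentration required for complete inhibition of growth.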

Legend:
Experiment in all cases: inhibition of tumour cell growth, NCI panel, 48 h
786-0 renal = system: 786-0 renal
A498 renal = system: A498 renal
ACHN renal = system: ACHN renal
BT-549 breast = system: BT-549 breast
CAKI-1 renal = system: CAKI-1 renal
CCRF-CEM leukemia = system: CCRF-CEM leukemia
COLO 205 colon = system: COLO 205 colon
DU-145 prostate = system: DU-145 prostate
EKVX NSCLC = system: EKVX NSCLC
HCC-2998 colon = system: HCC-2998 colon
HCT-116 colon = system: HCT-116 colon
HCT-15 colon = system: HCT-15 colon
HOP-62 NSCLC = system: HOP-62 NSCLC
HOP-92 NSCLC = system: HOP-92 NSCLC
HS 578T breast = system: HS 578T breast
HT29 colon = system: HT29 colon
KM12 colon = system: KM12 colon
LOX IMVI melanoma = system: LOX IMVI melanoma
M14 melanoma = system: M14 melanoma
MALME-3M melanoma = system: MALME-3M melanoma
MCF7 breast = system: MCF7 breast
MDA-MB-231 breast = system: MDA-MB-231 breast
MDA-MB-435 = system: MDA-MB-435
NCI-H226 lung = system: NCI-H226 lung
NCI-H23 lung = system: NCI-H23 lung
NCI-H460 lung = system: NCI-H460 lung
NCI-H522 lung = system: NCI-H522 lung
NCI/ADR-RES ovarian = system: NCI/ADR-RES ovarian
OVCAR-3 ovarian = system: OVCAR-3 ovarian
OVCAR-4 ovarian = system: OVCAR-4 ovarian
OVCAR-5 ovarian = system: OVCAR-5 ovarian
RPMI-8226 leukemia = system: RPMI-8226 leukemia
RXF 393 renal = system: RXF 393 renal
SF-268 CNS = system: SF-268 CNS
SF-295 CNS = system: SF-295 CNS
SF-539 CNS = system: SF-539 CNS
SK-MEL-2 melanoma = system: SK-MEL-2 melanoma
SK-MEL-28 melanoma = system: SK-MEL-28 melanoma
SK-MEL-5 melanoma = system: SK-MEL-5 melanoma
SK-OV-3 ovarian = system: SK-OV-3 ovarian
SN12C renal = system: SN12C renal
SNB-19 CNS = system: SNB-19 CNS
SNB-75 CNS = system: SNB-75 CNS
SW-620 colon = system: SW-620 colon
T-47D breast = system: T-47D breast
TK-10 renal = system: TK-10 renal
U251 CNS = system: U251 CNS
UACC-62 melanoma = system: UACC-62 melanoma
UO-31 renal = system: UO-31 renal

CCCCCCCC/C(=C\C1=C(C)C(=O)C(OC)=C(OC)C1=O)C(=O)O
GI50 (786-0 renal): 62.7 µM | TGI (786-0 renal): > 100 µM | GI50 (A498 renal): 78.8 µM | TGI (A498 renal): > 100 µM | GI50 (ACHN renal): 29 µM | TGI (ACHN renal): > 100 µM | GI50 (BT-549 breast): 24.2 µM | TGI (BT-549 breast): 54.6 µM | GI50 (CAKI-1 renal): 51.2 µM | TGI (CAKI-1 renal): > 100 µM | GI50 (CCRF-CEM leukemia): 20.2 µM | TGI (CCRF-CEM leukemia): 42.5 µM | GI50 (COLO 205 colon): > 100 µM | TGI (COLO 205 colon): > 100 µM | GI50 (DU-145 prostate): 25.4 µM | TGI (DU-145 prostate): 94 µM | GI50 (EKVX NSCLC): 15.8 µM | TGI (EKVX NSCLC): 31.6 µM | GI50 (HCC-2998 colon): 66.2 µM | TGI (HCC-2998 colon): > 100 µM | GI50 (HCT-116 colon): 16.3 µM | TGI (HCT-116 colon): 29.9 µM | GI50 (HCT-15 colon): 63.6 µM | TGI (HCT-15 colon): > 100 µM | GI50 (HOP-62 NSCLC): 73.2 µM | TGI (HOP-62 NSCLC): > 100 µM | GI50 (HOP-92 NSCLC): 13 µM | TGI (HOP-92 NSCLC): 29.6 µM | GI50 (HS 578T breast): 23.8 µM | TGI (HS 578T breast): 83.9 µM | GI50 (HT29 colon): 65.1 µM | TGI (HT29 colon): > 100 µM | GI50 (KM12 colon): 53.5 µM | TGI (KM12 colon): > 100 µM | GI50 (LOX IMVI melanoma): 19.9 µM | TGI (LOX IMVI melanoma): 45.5 µM | GI50 (M14 melanoma): > 100 µM | TGI (M14 melanoma): > 100 µM | GI50 (MALME-3M melanoma): 51.3 µM | TGI (MALME-3M melanoma): > 100 µM | GI50 (MCF7 breast): 22.3 µM | TGI (MCF7 breast): 44.8 µM | GI50 (MDA-MB-231 breast): 21.4 µM | TGI (MDA-MB-231 breast): 51.2 µM | GI50 (MDA-MB-435): 18.8 µM | TGI (MDA-MB-435): 37 µM | GI50 (NCI-H226 lung): 29.2 µM | TGI (NCI-H226 lung): > 100 µM | GI50 (NCI-H23 lung): 57.7 µM | TGI (NCI-H23 lung): > 100 µM | GI50 (NCI-H460 lung): 86.7 µM | TGI (NCI-H460 lung): > 100 µM | GI50 (NCI-H522 lung): 78.1 µM | TGI (NCI-H522 lung): > 100 µM | GI50 (NCI/ADR-RES ovarian): 27.1 µM | TGI (NCI/ADR-RES ovarian): 97.5 µM | GI50 (OVCAR-3 ovarian): 34.1 µM | TGI (OVCAR-3 ovarian): > 100 µM | GI50 (OVCAR-4 ovarian): 19.9 µM | TGI (OVCAR-4 ovarian): 36.9 µM | GI50 (OVCAR-5 ovarian): > 100 µM | TGI (OVCAR-5 ovarian): > 100 µM | GI50 (RPMI-8226 leukemia): 20.5 µM | TGI (RPMI-8226 leukemia): 49.9 µM | GI50 (RXF 393 renal): 23.7 µM | TGI (RXF 393 renal): 44.1 µM | GI50 (SF-268 CNS): 29.5 µM | TGI (SF-268 CNS): 70.3 µM | GI50 (SF-295 CNS): 43 µM | TGI (SF-295 CNS): > 100 µM | GI50 (SF-539 CNS): 23.2 µM | TGI (SF-539 CNS): 75.5 µM | GI50 (SK-MEL-2 melanoma): > 100 µM | TGI (SK-MEL-2 melanoma): > 100 µM | GI50 (SK-MEL-28 melanoma): 43.4 µM | TGI (SK-MEL-28 melanoma): > 100 µM | GI50 (SK-MEL-5 melanoma): 36.7 µM | TGI (SK-MEL-5 melanoma): > 100 µM | GI50 (SK-OV-3 ovarian): > 100 µM | TGI (SK-OV-3 ovarian): > 100 µM | GI50 (SN12C renal): 0.198 µM | TGI (SN12C renal): 29.2 µM | GI50 (SNB-19 CNS): 75.9 µM | TGI (SNB-19 CNS): > 100 µM | GI50 (SNB-75 CNS): 67.7 µM | TGI (SNB-75 CNS): > 100 µM | GI50 (SW-620 colon): 35 µM | TGI (SW-620 colon): > 100 µM | GI50 (T-47D breast): 21.9 µM | TGI (T-47D breast): 48.8 µM | GI50 (TK-10 renal): > 100 µM | TGI (TK-10 renal): > 100 µM | GI50 (U251 CNS): 19.9 µM | TGI (U251 CNS): 41.8 µM | GI50 (UACC-62 melanoma): 33.8 µM | TGI (UACC-62 melanoma): > 100 µM | GI50 (UO-31 renal): 40.3 µM | TGI (UO-31 renal): > 100 µM
